Test results taken from paper PMC3314654, “Characterization of Rhodamine-123 as a Tracer Dye for Use In In vitro Drug Transport Assays” (PLoS ONE, 2012).

Experiments:
ABCB1 (MDR1) = ABCB1 (MDR1) (Homo sapiens, UniProt P08183); assay: R123 efflux from MDCKII-ABCB1 versus naive MDCKII cells (Km); format: cell-based; details: mdck
OATP1A2 = molecular target: T1, OATP1A2 (Homo sapiens, UniProt P46721); assay: R123 uptake in BacMam-transduced HEK293-MSRII cells (Km); format: cell-based
T1 construct: gene SLCO1A2
T1 sequence (P46721 1-670): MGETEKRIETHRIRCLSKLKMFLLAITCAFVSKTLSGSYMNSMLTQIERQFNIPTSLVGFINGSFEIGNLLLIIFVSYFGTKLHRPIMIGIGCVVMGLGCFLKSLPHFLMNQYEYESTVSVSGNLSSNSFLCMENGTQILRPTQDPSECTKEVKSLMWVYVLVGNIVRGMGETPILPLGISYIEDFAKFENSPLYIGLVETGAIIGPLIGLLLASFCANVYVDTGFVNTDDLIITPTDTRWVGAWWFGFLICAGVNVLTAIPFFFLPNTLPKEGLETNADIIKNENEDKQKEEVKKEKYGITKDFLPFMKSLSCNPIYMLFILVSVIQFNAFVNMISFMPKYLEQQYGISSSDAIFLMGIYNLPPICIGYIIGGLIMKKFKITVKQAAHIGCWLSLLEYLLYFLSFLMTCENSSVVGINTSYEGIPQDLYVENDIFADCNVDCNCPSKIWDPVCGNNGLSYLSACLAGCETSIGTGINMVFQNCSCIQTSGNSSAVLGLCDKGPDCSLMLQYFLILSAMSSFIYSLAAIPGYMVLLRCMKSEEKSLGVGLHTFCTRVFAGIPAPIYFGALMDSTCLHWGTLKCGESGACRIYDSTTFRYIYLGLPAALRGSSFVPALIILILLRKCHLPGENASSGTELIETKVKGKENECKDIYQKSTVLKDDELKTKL

Chain of ABCB1 (MDR1) (P08183 whole entry): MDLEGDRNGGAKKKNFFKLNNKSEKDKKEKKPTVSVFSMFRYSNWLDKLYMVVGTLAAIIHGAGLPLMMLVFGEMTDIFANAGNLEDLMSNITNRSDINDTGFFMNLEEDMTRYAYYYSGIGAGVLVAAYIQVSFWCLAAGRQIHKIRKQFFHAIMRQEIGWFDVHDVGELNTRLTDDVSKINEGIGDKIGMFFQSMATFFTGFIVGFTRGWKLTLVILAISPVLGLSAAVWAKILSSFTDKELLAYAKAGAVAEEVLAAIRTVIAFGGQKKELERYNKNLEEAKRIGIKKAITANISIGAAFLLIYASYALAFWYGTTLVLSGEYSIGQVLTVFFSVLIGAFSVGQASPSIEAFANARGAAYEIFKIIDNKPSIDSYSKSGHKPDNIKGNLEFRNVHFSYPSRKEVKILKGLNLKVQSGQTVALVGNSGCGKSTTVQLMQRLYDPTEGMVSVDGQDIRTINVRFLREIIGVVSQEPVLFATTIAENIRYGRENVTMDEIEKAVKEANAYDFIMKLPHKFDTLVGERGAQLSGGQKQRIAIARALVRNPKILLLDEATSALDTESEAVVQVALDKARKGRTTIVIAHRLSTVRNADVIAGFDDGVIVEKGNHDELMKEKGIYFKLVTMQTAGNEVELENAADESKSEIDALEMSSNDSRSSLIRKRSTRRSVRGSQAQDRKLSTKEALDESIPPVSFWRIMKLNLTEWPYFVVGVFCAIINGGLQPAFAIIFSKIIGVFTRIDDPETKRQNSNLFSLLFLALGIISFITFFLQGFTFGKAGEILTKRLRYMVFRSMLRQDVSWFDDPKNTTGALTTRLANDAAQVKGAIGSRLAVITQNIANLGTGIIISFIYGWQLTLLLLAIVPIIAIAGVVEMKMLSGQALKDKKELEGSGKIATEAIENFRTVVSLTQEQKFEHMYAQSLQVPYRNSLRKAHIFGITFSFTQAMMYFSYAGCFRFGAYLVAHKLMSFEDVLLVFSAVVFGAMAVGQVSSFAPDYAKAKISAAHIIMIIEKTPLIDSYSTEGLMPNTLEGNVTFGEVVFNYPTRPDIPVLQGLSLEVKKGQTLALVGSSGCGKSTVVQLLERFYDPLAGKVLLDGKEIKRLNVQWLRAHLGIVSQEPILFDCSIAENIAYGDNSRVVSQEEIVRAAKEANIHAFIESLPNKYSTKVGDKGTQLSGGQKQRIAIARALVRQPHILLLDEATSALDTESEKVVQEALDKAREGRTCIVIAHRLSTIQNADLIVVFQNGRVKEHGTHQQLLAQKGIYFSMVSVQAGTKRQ

Compound `COC(=O)c1ccccc1-c1c2ccc(=N)cc-2oc2cc(N)ccc12` [R123, Rhodamine 123] has a Km (ABCB1 (MDR1)) of 17.5 ± 2.8 µM and a Km (OATP1A2) of 0.3 ± 0.1 µM.
